≈ marks a conversion by molar mass, not a printed value. Where two headings read alike, the source gives them in different places.
Key:
[1] = tested on: Leishmania infantum (LI01); assay: Antiparasitic activity (MIC), Leishmania infantum LI01; type: cell-based
[2] = tested on: Candida albicans (CA01); assay: Antifungal assay (MIC), Candida albicans CA01; type: cell-based; conditions: 48 h
Procedure: (§1) Stock solutions of all compounds were prepared in DMSO. Two bacterial (E. coli UTI89 and S. aureus S25) and two yeast strains (C. krusei CK1 and C. albicans CA01) have been used for this study. […] Each culture was diluted 12 times to have a final OD value of 0.1. Then, 100 µL from the diluted (OD of 0.1) bacterial culture and 0.5 μL of each stock solution was added to the corresponding wells (in triplicate) in a 96-well plate to a final concentration of 50 μM. For the antifungal assay, the two strains C. krusei CK1 and C. albicans CA01 were spread on Petri plates with YPD (yeast-extract peptone dextrose) agar. Later, an isolated colony was collected in a tube containing 5mL of RGM (RPMI 1640® (21875, Invitrogen GIBCO®) + 34.56g/L MOPS) to have an OD of 0.05. The fungal culture and stock solutions of compounds were diluted and added to the wells as indicated for the antibacterial activity assay. To determine the potential inhibitory effect of extracts on fungal growth, absorbance at t = 0 h, t = 20 h (for antibacterial assay), and t = 48 h (for antifungal assay) were measured with the Biotek Synergy 2 Plate Reader at a wavelength of 600 nm and analyzed with the software Gen5 v3.08. Then, the differential OD was calculated (ODT48/20-ODT0) and compared to solvent control. […] Ampicillin was used as positive control (MIC of 0.5 µg/mL for all bacteria and 1.0 µg/mL for all fungi).

[3] = tested on: peripheral blood mononuclear cells (PBMC); assay: Cytotoxicity assay (AlamarBlue), PBMC; type: cell-based, human; conditions: PBMC primary cells
Procedure: (§2) Human erythrocytes (RBC), human monocytes (THP-1), and peripheral blood mononuclear cells (PBMC) were used for this study. THP-1 cells (TIB-202) were obtained from ATCC (https://www.atcc.org (accessed on 26 January 2025)) and activated with PMA (phorbol myristate acetate) (100 ng/mL) for 48 h. Cells were grown in RPMI 1640 medium supplemented with fetal bovine serum (FBS) 10% (10270-098, GIBCO®) and penicillin/streptomycin (1%) (15140-122 GIBCO®) at 37 °C under 5% CO2 atmosphere.
(§3) For the cytotoxicity assay, THP-1 and PBMC medium cultures were added into 96-well plates with 5 × 10^3 cells per well. A two-fold dilution concentration series of each compound was added to the plates to final concentrations of 200 − 6.25 μM. AlamarBlue (DAL1025, ThermoFisher, Waltham, MA, USA), a ready-to-use resazurin-based solution, was used to measure cell viability after treatment with the extracts. A total of 10 µL was added to each well and the plate was incubated for 6–8 h at 37 °C. Fluorescence was then measured with the Biotek Synergy 2 Plate Reader using excitation at 530 nm and emission at 590 nm. The percentage of cell death was then calculated using the following formula (Equation (3)):(3) % Cellular Death = 100 × ODt − OD100/OD0 − OD100 where ODt = the fluorescence value of the test compound, OD100 = the fluorescence value for the culture medium, and OD0 = the fluorescence value for Triton 0.12%.

[4] = tested on: human monocytes (THP-1); assay: Cytotoxicity assay (AlamarBlue), THP-1; type: cell-based; conditions: PMA-activated
Procedure: as §2, §3

[5] = tested on: human erythrocytes (RBC); assay: Hemolytic assay, human erythrocytes; type: cell-based; conditions: for IC50: Homo sapiens, Erythrocyte, 0.5 h; for cytotoxicity against human erythrocytes (RBC): result in words
Procedure: as §2
For the hemolytic assay, freshly obtained human erythrocytes (RBCs) from patients were washed twice with PBS (pH 7.4). This assay was performed at 10% hematocrit with two-fold serial dilutions from 200 μM of test compounds in a final volume of 100 μL, followed by incubation at 37 °C under 5% CO2 atmosphere for 30 min. Later, the plates were centrifugated at 3000g for 5 min and supernatant was transferred onto a new 96-well plate. Finally, RBC lysis was determined by the absorbance of the supernatant at 540 nm. Results were calculated with the following formula (Equation (2)):(2) % hemolysis = 100 × ODt − OD100/OD0 − OD100 where ODt = the absorbance value of test compounds; OD100 = the absorbance value of the medium; and OD0 = the absorbance value of the wells treated with 1% Triton-X.

[6] = tested on: (CK01); assay: Antifungal assay (MIC), Candida strain CK01; type: cell-based, Candida tropicalis; conditions: 48 h
[7] = tested on: Escherichia coli (UTI89); assay: Antibacterial assay (MIC), Escherichia coli UTI89; type: cell-based; conditions: 20 h
Procedure: as §1

[8] = tested on: Staphylococcus aureus (S25); assay: Antibacterial assay (MIC/MBC), Staphylococcus aureus S25; type: cell-based; conditions: for MIC: 20 h
Procedure: as §1

[9] = tested on: all fungi (C. krusei CK1 and C. albicans CA01); assay: Antifungal assay, positive control, all fungi; type: cell-based; conditions: Pichia kudriavzevii
Procedure: as §1

[10] = tested on: all bacteria (E. coli UTI89 and S. aureus S25); assay: Antibacterial assay, positive control, all bacteria; type: cell-based; conditions: Escherichia coli
Procedure: as §1

[11] = tested on: Staphylococcus aureus; conditions: result in words; cited from earlier work
[12] = tested on: Niemann-Pick C1-like 1 (NPC1L1) protein; set-up: method as in PMID 30665368; conditions: reducing the cholesterol absorption; cited from earlier work
[13] = Homo sapiens, THP-1 cell line, read-out: IC50
[14] = RBC primary cells, hemolysis, 30 min, 10% hematocrit, read-out: IC50
[15] = Staphylococcus aureus (S25), OD 600 nm, inhibiting bacterial growth, read-out: MIC
[16] = Homo sapiens, THP-1, THP-1 cell line

Molecule	IC50 ([3]; Homo sapiens, read-out: IC50)	IC50 [4, 13]	IC50 [5, 14]	MIC [8, 15]	MIC ([7]; Escherichia coli)	MBC ([8]; Staphylococcus aureus)	MIC ([8]; Staphylococcus aureus)	MIC ([1]; Leishmania infantum)	MIC ([2]; Candida albicans)	IC50 ([3]; Homo sapiens, PBMC)	IC50 [3]	IC50 [4, 16]	IC50 ([4]; THP-1 cell line)	IC50 [5]	cytotoxicity against human erythrocytes (RBC) [5]	MIC ([6]; Candida tropicalis)	also measured
C[C@@H]1[C@H](O)[C@@H](C)/C=C/C=C/C=C/C=C/C=C/C=C/C=C/[C@H](O[C@@H]2O[C@H](C)[C@@H](O)[C@H](N)[C@@H]2O)C[C@@H]2O[C@](O)(C[C@@H](O)C[C@@H](O)[C@H](O)CC[C@@H](O)C[C@@H](O)CC(=O)O[C@H]1C)C[C@H](O)[C@H]2C(=O)O [Amphotericin B, reference compound]	6.25 µM	3.13 µM	25 µM														MIC ([1]; Leishmania infantum (LI01), read-out: MIC): 0.39 µM (≈ 0.36 µg/mL); MIC ([2]; Candida albicans (CA01), OD 600 nm, read-out: MIC): 0.2 µM; MIC ([6]; Candida tropicalis (CK01), OD 600 nm, read-out: MIC): 0.2 µM (≈ 0.185 µg/mL)
CC1(C)S[C@@H]2[C@H](NC(=O)[C@H](N)c3ccccc3)C(=O)N2[C@H]1C(=O)O [Ampicillin, reference compound]	> 200 µM	> 200 µM	> 200 µM	1.56 µM													MIC ([7]; Escherichia coli (UTI89), OD 600 nm, read-out: MIC): > 100 µM; MIC [9]: 1 µg/mL; MIC [10]: 0.5 µg/mL
CC1=CC2(O)C(C3(C)CC(C)CC(C)C(=O)O3)CC(=O)C23C(=O)N(C)C(=O)C(c2ccccc2)C3C1C (stereo not drawn) [compound 2, chamiside A]																	antibacterial activity against Staphylococcus aureus [11]: moderate antibacterial activity
C[C@H]1Oc2cc3c(-c4c(O)cc(O)c5c(O)c6c(cc45)O[C@H](C)[C@@H](C)C6=O)c(O)cc(O)c3c(O)c2C(=O)[C@@H]1C [compound 7, chaetochromin A]				6.25 µM	> 100 µM	12.5 µM	6.25 µM	> 100 µM	> 100 µM	35.4 µM	33.6 to 40 µM	33.6 µM	33.6 to 40 µM	> 200 µM	no cytotoxicity	> 100 µM	antibacterial activity against S. aureus [11]: strong antibacterial activity
C[C@@H]1Oc2cc3c(-c4c(O)cc(O)c5c(O)c6c(cc45)O[C@H](C)[C@@H](C)C6=O)c(O)cc(O)c3c(O)c2C(=O)[C@@H]1C [compound 8, chaetochromin B]				6.25 µM	> 100 µM	12.5 µM	6.25 µM	> 100 µM	100 µM	40 µM	33.6 to 40 µM	37.3 µM	33.6 to 40 µM	> 200 µM	no cytotoxicity	> 100 µM	
Chamiside F																	inhibitory activity against NPC1L1 [12]: inhibitory activity
